We go through 4 compounds from patent US20110039825A1, “LIGANDS OF ALPHA-ADRENOCEPTORS, DOPAMINE, HISTAMINE, IMIDAZOLINE AND SEROTONIN RECEPTORS AND THEIR USE” (Alla Chem, LLC, priority 2007, published 2011).

Assay [1] deals with T1, recombinant human 5-HT2B receptor (Homo sapiens, UniProt P41595).
T1 construct: expressed in transfected cells; host or cells: CHO-K1
Nature of the assay: radioligand binding to serotonin receptor 5-HT2B ([3H] Lysergic acid diethylamide). The settings on record: for 5-HT2B % inhibition: 10 μM ligand.
Description: Screening of the disclosed compounds for potential ability to interact with serotonin receptor 5-HT2A is carried out by method of radioligand binding. For this purpose membrane species are prepared from CHO-K1 cells comprising recombinant human 5-HT2B receptor by homogenization of recombinant cells in glass homogenizer with the subsequent separation of plasmatic membranes from cell nuclei, mitochondrias and cell wreckages by differential centrifugation. […] After incubation the samples are filtered in vacuo on glass-microfiber filters G/F (Millipor, USA), filters are washed three times with cold solution of medium and radioactivity is measured by scintillation counter MicroBeta 340 (Perkin Elmer, USA). […] Ketanserin is used as positive control. The tested compounds' binding to the receptor is determined by their ability to displace the radioligand and is expressed in percent of displacement (% I). Values of % I are calculated according to the following equation:
wherein: TA—is the overall radioactivity in the presence of radioligand only, CA—is the radioactivity in the presence of radioligand and tested compound and NA—is the radioactivity in the presence of radioligand and Serotonin (10 μM).

Assay [2] has as its target T2, recombinant human 5-HT2A receptor (Homo sapiens, UniProt P28223).
T2 construct: expressed in transfected cells; host or cells: CHO-K1
Nature of the assay: radioligand binding to serotonin receptor 5-HT2A ([3H] Ketanserin). Particulars: 10 μM ligand. Here is the method: 9-C. […] J. Neurochem. […] Ketanserin is used as positive control. […] Values of % I is calculated according to the following equation: […]

For assay [3], the target named is T3, human 5-HT7 receptor (Homo sapiens, UniProt P34969).
T3 construct: expressed in transfected cells; host or cells: CHO
T3 sequence (P34969 whole entry): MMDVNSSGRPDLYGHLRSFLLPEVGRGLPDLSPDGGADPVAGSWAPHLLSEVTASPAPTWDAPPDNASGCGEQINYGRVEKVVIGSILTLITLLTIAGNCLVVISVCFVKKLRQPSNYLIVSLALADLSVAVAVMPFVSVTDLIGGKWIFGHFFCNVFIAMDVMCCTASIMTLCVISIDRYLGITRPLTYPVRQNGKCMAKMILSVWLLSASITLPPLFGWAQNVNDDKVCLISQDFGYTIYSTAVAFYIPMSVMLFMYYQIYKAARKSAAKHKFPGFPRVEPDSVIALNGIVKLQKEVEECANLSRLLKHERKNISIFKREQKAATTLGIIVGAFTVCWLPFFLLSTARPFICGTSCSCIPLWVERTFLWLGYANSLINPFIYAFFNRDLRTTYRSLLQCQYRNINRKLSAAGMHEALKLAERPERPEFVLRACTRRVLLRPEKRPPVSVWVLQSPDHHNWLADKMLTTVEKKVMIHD
The assay is described as follows: radioligand binding to serotonin receptor 5-HT7 ([3H] Lysergic acid diethylamide). Particulars: 10 μM ligand. The text has this: For this purpose sDNA of human 5-HT7 receptor is expressed in CHO cells as it was described in [Shen Y, Monsma F J Jr, Metcalf M A, Jose P A, Hamblin M W, and Sibley DR. […] J. Biol. Chem. 1993, 268, 18200-18204]. […] J. Pharmacol. Exp. Ther. 1994, 268:1403-1410]. […] Methiothepin is used as positive control.

In assay [4] the target is T4, recombinant human 5-HT1A (Homo sapiens, UniProt P08908).
T4 construct: expressed in transfected cells; host or cells: CHO
T4 sequence (P08908 1-422): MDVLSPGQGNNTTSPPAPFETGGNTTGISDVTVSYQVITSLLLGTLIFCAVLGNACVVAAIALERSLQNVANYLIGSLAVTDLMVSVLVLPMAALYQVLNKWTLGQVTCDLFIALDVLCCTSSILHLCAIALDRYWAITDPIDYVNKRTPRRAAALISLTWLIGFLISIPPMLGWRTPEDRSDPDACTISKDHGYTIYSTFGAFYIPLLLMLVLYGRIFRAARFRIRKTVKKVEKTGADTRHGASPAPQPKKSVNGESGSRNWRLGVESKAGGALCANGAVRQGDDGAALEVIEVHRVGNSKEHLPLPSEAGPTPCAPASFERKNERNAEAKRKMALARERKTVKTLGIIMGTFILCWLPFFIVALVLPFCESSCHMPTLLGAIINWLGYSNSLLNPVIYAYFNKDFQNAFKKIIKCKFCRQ
The assay is described as follows: radioligand binding to serotonin receptor 5-HT1A ([3H] 8-OH-DPAT). The settings on record: for 5-HT1A % inhibition: 10 μM ligand; for inhibition at 1 µM: ligand concentration 1 μM. The text has this:
J Pharmacol Exp Ther. 306(1): 301-309, 2003]. […] Metergoline is used as positive control.

Assay [5] concerns the target T5, adrenergic receptor α1A (Rattus norvegicus, UniProt P43140).
T5 construct: membrane species from rat submaxillary glands (rat of Wistar breed) are prepared; from tissue; host or cells: rat (Wistar) submaxillary gland membranes
T5 sequence (P43140 1-466): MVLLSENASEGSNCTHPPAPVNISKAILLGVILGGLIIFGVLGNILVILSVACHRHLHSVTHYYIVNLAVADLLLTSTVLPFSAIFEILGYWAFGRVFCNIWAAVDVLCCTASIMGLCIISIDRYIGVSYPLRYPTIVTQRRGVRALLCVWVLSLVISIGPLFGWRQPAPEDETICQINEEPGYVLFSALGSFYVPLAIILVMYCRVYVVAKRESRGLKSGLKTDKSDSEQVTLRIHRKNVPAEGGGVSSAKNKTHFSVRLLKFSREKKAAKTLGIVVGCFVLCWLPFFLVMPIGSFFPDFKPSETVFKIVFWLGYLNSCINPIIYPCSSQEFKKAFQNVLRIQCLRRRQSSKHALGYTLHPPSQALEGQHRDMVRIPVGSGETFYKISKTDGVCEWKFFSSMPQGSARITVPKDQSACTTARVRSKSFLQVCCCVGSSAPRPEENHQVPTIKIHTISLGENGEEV
The assay is described as follows: radioligand binding to adrenergic receptor α1A ([3H] Prazosin). Particulars: 10 μM ligand. Here is the method: Determination of investigated compounds' binding to α1A receptor was carried out according to the method described in [Michel A D, Loury D N and Whiting R l. Identification of a single α1A-adrenoceptor corresponding to the α1A-subtype in rat submaxillary gland. Br J. Pharmacol. 98:883-889, 1989]. […] Prazosin is used as positive control.

The target of assay [6] is T6, adrenergic receptor α1B (Rattus norvegicus, UniProt P15823).
T6 construct: membrane species from rat liver (rat of Wistar breed) are prepared; from tissue; host or cells: rat (Wistar) liver membranes
T6 sequence (P15823 1-515): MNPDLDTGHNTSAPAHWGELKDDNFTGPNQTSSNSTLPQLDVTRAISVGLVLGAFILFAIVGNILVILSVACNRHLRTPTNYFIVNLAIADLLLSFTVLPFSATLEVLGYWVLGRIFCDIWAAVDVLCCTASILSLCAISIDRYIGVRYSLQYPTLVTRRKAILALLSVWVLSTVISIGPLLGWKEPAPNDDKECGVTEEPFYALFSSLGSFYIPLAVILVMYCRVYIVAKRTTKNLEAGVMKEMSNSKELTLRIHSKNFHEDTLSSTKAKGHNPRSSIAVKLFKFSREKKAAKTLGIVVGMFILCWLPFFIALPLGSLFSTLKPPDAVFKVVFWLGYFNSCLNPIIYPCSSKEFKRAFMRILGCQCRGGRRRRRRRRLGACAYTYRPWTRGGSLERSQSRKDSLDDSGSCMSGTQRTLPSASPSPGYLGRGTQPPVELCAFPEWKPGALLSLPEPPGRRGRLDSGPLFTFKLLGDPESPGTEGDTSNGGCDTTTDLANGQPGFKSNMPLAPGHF
The assay is described as follows: radioligand binding to adrenergic receptor α1B ([3H] Prazosin). Particulars: 10 μM ligand. The text has this: Species heterogeneity of hepatic α1A-, α1B-, and α1C-subtypes. Biochem Biophys Res Commun. 186:760-7676 1992]. […] Prazosin is used as positive control.

For assay [7], the target named is T7, human α1D receptor (Homo sapiens, UniProt P25100).
T7 construct: expressed in transfected cells; host or cells: HEK-293
T7 sequence (P25100 1-572): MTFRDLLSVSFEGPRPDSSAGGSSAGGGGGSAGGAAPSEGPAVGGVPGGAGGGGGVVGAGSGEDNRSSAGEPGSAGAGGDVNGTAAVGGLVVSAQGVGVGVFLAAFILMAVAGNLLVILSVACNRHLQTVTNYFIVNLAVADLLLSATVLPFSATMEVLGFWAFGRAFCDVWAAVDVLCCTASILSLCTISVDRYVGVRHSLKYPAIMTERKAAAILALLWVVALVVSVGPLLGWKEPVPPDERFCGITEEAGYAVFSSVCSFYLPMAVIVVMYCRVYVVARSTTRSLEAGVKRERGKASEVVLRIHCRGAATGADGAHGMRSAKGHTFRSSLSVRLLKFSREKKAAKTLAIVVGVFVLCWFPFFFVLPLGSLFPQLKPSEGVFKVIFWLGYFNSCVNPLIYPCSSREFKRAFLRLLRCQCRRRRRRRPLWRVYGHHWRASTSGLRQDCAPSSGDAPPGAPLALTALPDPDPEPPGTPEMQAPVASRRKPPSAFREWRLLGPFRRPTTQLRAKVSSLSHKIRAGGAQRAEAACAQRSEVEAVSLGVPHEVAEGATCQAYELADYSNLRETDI
Nature of the assay: radioligand binding to adrenergic receptor α1D ([3H] Prazosin). The settings on record: 10 μM ligand. The text has this:
6-C. […] For this purpose sDNA of human α1D receptor is expressed in HEK-293 cells, as it was described in [T L Theroux, T A Esbenshade, R D Peavy and K P Minneman. Coupling efficiencies of human alpha 1-adrenergic receptor subtypes: titration of receptor density and responsiveness with inducible and repressible expression vectors. Mol. Pharmacol.; 50: 1376-1387, 1996]. […] Prazosin is used as positive control.

The test system of assay [8] is imidazoline receptor I2. The assay is described as follows: radioligand binding to imidazoline receptor I2 ([3H] Idazoxan). The arrangement: species or system rat. The settings on record: 10 μM ligand. How it is done:
Determination of investigated compounds' binding to imidazoline I2 receptor is carried out according to the method described in [Brown C M, MacKinnon A C, McGrath J C, Spedding M and Kilpatrick A T, a2-Adrenoceptor subtypes and imidazoline-like binding in the rat brain. Br J. Pharmacol. 99:803-809, 1990]. […] Idazoxan is used as positive control.

The target in assay [9] is T8, human α2A receptor (Homo sapiens, UniProt P08913).
T8 construct: expressed in transfected cells; host or cells: Sf9
T8 sequence (P08913 1-465): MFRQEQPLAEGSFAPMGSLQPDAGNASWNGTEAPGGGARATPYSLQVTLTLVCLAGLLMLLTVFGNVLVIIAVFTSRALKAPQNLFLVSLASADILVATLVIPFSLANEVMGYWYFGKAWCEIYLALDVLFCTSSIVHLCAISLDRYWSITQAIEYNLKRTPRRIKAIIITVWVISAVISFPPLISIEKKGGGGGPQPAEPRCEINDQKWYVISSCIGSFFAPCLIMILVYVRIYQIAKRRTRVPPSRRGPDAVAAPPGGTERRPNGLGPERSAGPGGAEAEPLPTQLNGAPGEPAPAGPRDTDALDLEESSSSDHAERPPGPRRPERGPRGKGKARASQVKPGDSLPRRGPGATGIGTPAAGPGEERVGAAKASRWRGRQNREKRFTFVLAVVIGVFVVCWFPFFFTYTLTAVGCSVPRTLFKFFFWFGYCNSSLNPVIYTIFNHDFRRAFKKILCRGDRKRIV
Nature of the assay: radioligand binding to adrenergic receptor α2A ([3H] MK-912). Particulars: 10 μM ligand. The text has this:
J Pharmacol ExpTher. […] Yohimbine is used as positive control.

In assay [10] the target is T9, recombinant human 5-HT6 receptor (Homo sapiens, UniProt P50406).
T9 construct: expressed in transfected cells; host or cells: HeLa
T9 sequence (P50406 whole entry): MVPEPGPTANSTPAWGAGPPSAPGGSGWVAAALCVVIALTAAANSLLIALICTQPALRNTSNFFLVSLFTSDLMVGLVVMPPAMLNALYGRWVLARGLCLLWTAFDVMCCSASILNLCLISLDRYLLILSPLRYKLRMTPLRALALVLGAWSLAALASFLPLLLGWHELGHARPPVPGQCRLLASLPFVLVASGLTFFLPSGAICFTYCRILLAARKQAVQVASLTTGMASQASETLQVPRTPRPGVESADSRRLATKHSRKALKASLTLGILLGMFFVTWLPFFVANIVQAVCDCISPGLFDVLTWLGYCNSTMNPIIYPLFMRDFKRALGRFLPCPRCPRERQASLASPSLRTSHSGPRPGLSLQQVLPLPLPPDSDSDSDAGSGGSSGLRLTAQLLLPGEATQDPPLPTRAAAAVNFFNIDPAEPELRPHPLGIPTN
The assay is described as follows: radioligand binding to serotonin receptor 5-HT6 ([3H] Lysergic acid diethylamide). Particulars: ligand concentration 1 μM; read-out: 5-HT6 % inhibition. The source says:
Mol. Pharmacol. 43:320-327, 1993]. […] Methiothepin is used as positive control.

For assay [11], the target named is T10, recombinant human 5-HT2C receptor (Homo sapiens, UniProt P28335).
T10 construct: expressed in transfected cells; host or cells: CHO-K1
T10 sequence (P28335 33-458): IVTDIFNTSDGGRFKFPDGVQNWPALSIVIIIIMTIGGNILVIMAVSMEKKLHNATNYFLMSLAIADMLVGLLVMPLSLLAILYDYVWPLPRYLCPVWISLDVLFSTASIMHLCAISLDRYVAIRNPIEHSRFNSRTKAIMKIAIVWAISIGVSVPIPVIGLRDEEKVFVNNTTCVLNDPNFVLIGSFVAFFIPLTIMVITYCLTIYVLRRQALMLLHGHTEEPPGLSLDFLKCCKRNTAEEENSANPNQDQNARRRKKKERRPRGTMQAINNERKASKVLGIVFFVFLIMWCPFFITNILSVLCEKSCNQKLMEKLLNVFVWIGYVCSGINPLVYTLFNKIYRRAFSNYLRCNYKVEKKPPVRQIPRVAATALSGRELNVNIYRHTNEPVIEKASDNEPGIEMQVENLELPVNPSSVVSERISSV
Nature of the assay: radioligand binding to serotonin receptor 5-HT2C ([3H] Mesulergine). The source says: J. Neurochem. 69: 1449-1458, 1997]. […] SB242084 is used as positive control.

Each structure is given as a SMILES string. Structures can show the parent of a compound that is named as a salt.

T1 sequence (P41595 whole entry): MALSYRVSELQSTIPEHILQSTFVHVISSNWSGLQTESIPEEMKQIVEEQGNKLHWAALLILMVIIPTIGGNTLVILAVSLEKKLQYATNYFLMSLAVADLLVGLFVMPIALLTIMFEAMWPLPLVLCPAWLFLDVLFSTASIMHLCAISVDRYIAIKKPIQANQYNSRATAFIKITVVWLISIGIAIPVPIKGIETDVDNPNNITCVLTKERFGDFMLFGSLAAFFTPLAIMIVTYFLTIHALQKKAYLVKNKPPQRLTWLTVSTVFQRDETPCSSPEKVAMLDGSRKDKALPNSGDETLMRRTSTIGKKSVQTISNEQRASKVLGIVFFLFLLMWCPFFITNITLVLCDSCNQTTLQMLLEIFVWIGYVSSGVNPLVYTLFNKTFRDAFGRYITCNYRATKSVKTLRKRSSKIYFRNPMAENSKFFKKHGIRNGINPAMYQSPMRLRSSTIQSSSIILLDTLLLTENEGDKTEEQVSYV
T2 sequence (P28223 whole entry): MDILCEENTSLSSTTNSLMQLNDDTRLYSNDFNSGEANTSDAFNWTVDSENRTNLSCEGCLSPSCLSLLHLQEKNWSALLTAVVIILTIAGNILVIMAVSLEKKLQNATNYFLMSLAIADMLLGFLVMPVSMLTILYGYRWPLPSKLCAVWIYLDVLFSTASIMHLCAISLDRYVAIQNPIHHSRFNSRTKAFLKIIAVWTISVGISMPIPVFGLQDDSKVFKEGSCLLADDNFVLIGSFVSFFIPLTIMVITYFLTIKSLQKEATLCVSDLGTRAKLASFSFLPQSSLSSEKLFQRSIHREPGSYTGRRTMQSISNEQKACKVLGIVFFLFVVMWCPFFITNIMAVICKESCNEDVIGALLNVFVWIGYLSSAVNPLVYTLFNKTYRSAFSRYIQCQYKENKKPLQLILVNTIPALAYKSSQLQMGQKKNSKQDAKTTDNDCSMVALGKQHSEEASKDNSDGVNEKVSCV

Take `Cc1ccc2c(c1)c1c(n2CCc2ccccc2)CCCN(C)C1` [1.2.2(1-2)•HCl]: in assay [1], the 5-HT2B % inhibition is listed as 84%. Also, the 5-HT2A % inhibition in assay [2] turned out to be 89%. In assay [3], this compound yielded a 5-HT7 % inhibition of 97%. For the same compound, the 5-HT1A % inhibition in assay [4] stood at 20%.

`Cc1ccc2c(c1)c1c(n2CCc2cccnc2)CCCN(C)C1.Cl.Cl` [1.2.2(3-2)•2HCl]: the “α-Adrenoceptor α1A, % inhibition” value in assay [5] is 61%. For the same compound, the “α-Adrenoceptor α1B, % inhibition” value in assay [6] is on record as 75%. Moreover, in assay [7], the “α-Adrenoceptor α1D, % inhibition” value is given as 60%. The “imidazoline I2 receptor % inhibition” value in assay [8] amounted to 63%. Further, the “α-Adrenoceptor α2A, % inhibition” value in [9] came out at 71%. Moreover, in [4], the inhibition at 1 µM is 6%.

`Cc1ccc2c(c1)c1c(n2CCc2ccccc2)CCN(C)C1.Cl` [1.1.2(1-2)•HCl, 2,8-dimethyl-5-phenethyl-1,2,3,4-tetrahydro-1H-pyrido[4,3-b]indole hydrochloride]: in [1], the IC50 was 16.6 nM, the Ki stood at 10.6 nM, the “nH 5-HT2B” value is 0.868 and the 5-HT2B % inhibition is 100%. In assay [8], the “imidazoline I2 receptor % inhibition” value is reported as 93%. Further, the 5-HT1A % inhibition in assay [4] came to 84%.

Consider `Cc1ccc2c(c1)c1c(n2CCc2ccccn2)CCCN(C)C1` [1.2.2(2-2)], for which the inhibition at 1 µM in assay [10] amounted to 88%; in assay [4], 28%; in [11] (ligand concentration 1 μM) it was 94%. Moreover, the 5-HT2B % inhibition in assay [1] is given as 10%. Moreover, in assay [8], the “imidazoline I2 receptor % inhibition” value turned out to be 80%. Besides, the 5-HT2C % inhibition in assay [11] (10 μM ligand) is reported as 51%.

As usually defined, the inhibition is the percentage by which the read-out fell short of the control. Usually IC50 stands for the concentration that inhibits the measured activity by half. For orientation: Ki means a dissociation constant, usually derived from enzyme kinetics or from competition with a known ligand.
